# In a melting point compilation (Tetko et al.; mined from patent text by program, amines drawn as free bases though some values may be those of a salt):
row,Structure (SMILES),melting point [°C]
1,CCOc1ccc(C(=O)CCC(=O)O)c(OCC)c1,139 to 141
2,CC(C)OC1=NC(=O)N(C(C)C)S(=O)(=O)N1,164 to 167
3,Clc1ccc(C2=CCN(Cc3coc4ncccc34)CC2)cc1,116
4,CC1(C)CCC(C)(C)C1C(=O)O,114
5,O=[N+]([O-])c1ccc(Oc2ccc(O)c(Cl)c2Cl)cc1,147 to 150
6,CC(C)(C#N)Cc1ccc(CC(C)(C)C#N)cc1,192 to 194
7,O=C(O)CCCCCCCCc1ccc(O)cc1,103 to 105
8,COc1ccccc1Oc1c(NS(=O)(=O)c2c(C)noc2C)nc(-c2ncccn2)nc1OCCOC(=O)Nc1ccccn1,217 to 218
9,CC[Si](C#Cc1c2ccccc2c2ccc3c(C#C[Si](CC)(CC)CC)c4ccccc4c4ccc1c2c34)(CC)CC,300 to 307
10,O=C(c1cc2cc(Br)ccc2o1)C12CC3CC(CC(C3)C1)C2,115 to 117
11,COC(=O)C(Cc1cc(OC)cc(OC)c1)c1ccc(Oc2ccc(C=C3SC(=O)NC3=O)cc2)cc1 (stereo not drawn),104 to 106
12,O=C(/C=C/c1cccc(NC(=O)/C=C/c2ccc3c(c2)OCO3)c1)NO,128
13,COc1cc2sc(C)nc2cc1C,89 to 90
14,Cc1ncc2cccc(O)c2n1,135 to 137
15,Cc1ccnc2ccc(Cc3cnc(N)nc3N)cc12,262 to 268
16,O=C(O)[C@@H]1C[C@@H](O)CN1CCO,202 to 204
17,CCc1nsc(N=C(Cl)N(C)C)c1C#N,95 to 97
18,CCOP(=O)(OCC)C(OC)c1ccc(N)cc1 (stereo not drawn),100 to 101
19,CCC(O)c1cccc(S(N)(=O)=O)c1 (stereo not drawn),218 to 220
20,COC(=O)/C=C/[C@@H](c1ccc2ccccc2c1)c1cccc2c1ccn2C(=O)OC(C)(C)C,75 to 78
21,Clc1cccc(Cl)c1CSCc1c(Cl)cccc1Cl,128 to 130
22,CCOC(=O)c1c(CN(CC)CC)nc2sc3c(c2c1-c1ccc(OC)c(OC)c1)CCN(C(C)=O)C3,72 to 75
23,CNC(=O)Cn1nnnc1S,167 to 168

# More lines, now with the values ahead:
row,melting point [°C],Structure (SMILES)
1,138 to 140,CN1CCN(c2cc(Cl)cc3c2c(=O)n(Cc2ccc(O)cc2)c(=O)n3Cc2ccccc2)CC1
2,206 to 208,CSc1nn2c(N3CCOCC3)cc(C)nc2c1S(=O)(=O)c1ccccc1
3,121 to 124,O=C1NCC(CCN2CCN(c3ccccc3F)CC2)O1 (stereo not drawn)
4,68.7,CC#CCOc1nsc(-c2cccc(F)c2)n1
5,89 to 90,Clc1ccc(N=c2ssnc2Cl)cc1Cl
6,202 to 205,CCN(CC)Cc1cc(/C=C/C(=O)Nc2ccccc2C(=O)O)ccc1OC
7,154 to 155,CCOC(=O)c1cc2c3cccc(OC)c3ncn2c1
8,147 to 149,CCCn1nc(C(C)C)cc1Cc1ccc(-c2ccccc2-c2nnn[nH]2)cc1
9,106 to 108,O=Cc1ccc(OC2CCN(C(=O)OCC3c4ccccc4-c4ccccc43)CC2)cc1
10,149 to 150,CC(=O)NCC1CC1c1c(Cl)ccc2nn(C)cc12 (stereo not drawn)
11,186 to 188,Cc1noc(NS(=O)(=O)c2ccc(-c3ccccn3)s2)c1Br
12,60 to 63,CCC(NC(=O)c1ccccc1)C(=O)OC1CCCCC1 (stereo not drawn)
13,82 to 83,Fc1ccccc1C1CCN(Cc2ccccc2)CCN1Cc1ccccc1 (stereo not drawn)
14,171,CCOC(=O)c1nc(-c2ccccc2)[nH]c1N=NN(C)C
15,221 to 225,Nc1ccn2nc(N3CCCC3)nc2c1
16,89 to 91,CSC1Oc2cccc3cccc(c23)C1=O (stereo not drawn)
17,169 to 170,Clc1ccc2c(-n3cncn3)ccnc2c1
18,163 to 164,Cc1nc(-n2cnn(CCNc3ccc(F)cc3)c2=O)sc1C(=O)NCc1cccnc1
19,232 to 235,COc1cc2c(cc1-c1c(C)nn(C)c1C)-c1c(-c3cccs3)c3c(n1CC2)C(=O)N(C(C)C)CCN(C(=O)C(C)C)C3
20,213 to 214,COc1ccc(N2CCN(Cc3c[nH]c4ncccc34)CC2)cc1
